For this data set, the system named is CCRIS mutagenicity, Ames/micronucleus/aberration tests. In words: CCRIS mutagenicity studies.
[1] abbreviates: Test System: AMES SALMONELLA TYPHIMURIUM, Strain/Indicator: TA98, Metabolic Activation: NONE, Method: PREINCUBATION
[2] abbreviates: Test System: AMES SALMONELLA TYPHIMURIUM, Strain/Indicator: TA100, Metabolic Activation: NONE, Method: PREINCUBATION
Setting [3] is: Test System: AMES SALMONELLA TYPHIMURIUM, Strain/Indicator: TA1535, Metabolic Activation: NONE, Method: PREINCUBATION
Setting [4] is: Test System: AMES SALMONELLA TYPHIMURIUM, Strain/Indicator: TA1537, Metabolic Activation: NONE, Method: PREINCUBATION

Activity calls are given as the source filed them. How the calls were made is not given here.

Consider `O=C(NC(=S)NNC(=O)c1cc(O)ccc1O)c1ccccc1`, for which the mutagenic call (Test System: AMES SALMONELLA TYPHIMURIUM, Strain/Indicator: TA1530, Metabolic Activation: NONE, Method: STANDARD PLATE) was “active; positive”.
In the case of `[Cl][Sb]([Cl])[Cl]`, the mutagenic call by setting is: under setting [1], “inactive; negative”; (Test System: AMES SALMONELLA TYPHIMURIUM, Strain/Indicator: TA98, Metabolic Activation: RAT, LIVER, S-9 (10%), Method: PREINCUBATION) “inactive; negative”; under setting [2], “inactive; negative”; (Test System: AMES SALMONELLA TYPHIMURIUM, Strain/Indicator: TA100, Metabolic Activation: RAT, LIVER, S-9 (10%), Method: PREINCUBATION) “inactive; negative”.
`Fc1cnc2c(ccc3ccccc32)c1`: the mutagenic call (Test System: AMES SALMONELLA TYPHIMURIUM, Strain/Indicator: TA100, Metabolic Activation: RAT, LIVER, S-9, PHENOBARBITAL AND 5,6-BENZOFLAVONE, Method: PREINCUBATION) is “inactive; negative”.
For the compound `CCCCCCCCCCCCS`, the mutagenic call is “inactive; negative” (Test System: AMES SALMONELLA TYPHIMURIUM, Strain/Indicator: TA98, Metabolic Activation: HAMSTER, LIVER, S-9, AROCLOR 1254 (10%), Method: PREINCUBATION); “inactive; negative” (Test System: AMES SALMONELLA TYPHIMURIUM, Strain/Indicator: TA98, Metabolic Activation: HAMSTER, LIVER, S-9, AROCLOR 1254, Method: STANDARD PLATE); “inactive; negative” under setting [1]; “inactive; negative” (Test System: AMES SALMONELLA TYPHIMURIUM, Strain/Indicator: TA98, Metabolic Activation: NONE, Method: STANDARD PLATE); “inactive; negative” (Test System: AMES SALMONELLA TYPHIMURIUM, Strain/Indicator: TA98, Metabolic Activation: RAT, LIVER, S-9, AROCLOR 1254 (10%), Method: PREINCUBATION); “inactive; negative” (Test System: AMES SALMONELLA TYPHIMURIUM, Strain/Indicator: TA98, Metabolic Activation: RAT, LIVER, S-9, AROCLOR 1254, Method: STANDARD PLATE). Further, the mutagenic call (Test System: AMES SALMONELLA TYPHIMURIUM, Strain/Indicator: TA100, Metabolic Activation: HAMSTER, LIVER, S-9, AROCLOR 1254 (10%), Method: PREINCUBATION) is “inactive; negative”; the mutagenic call (Test System: AMES SALMONELLA TYPHIMURIUM, Strain/Indicator: TA100, Metabolic Activation: HAMSTER, LIVER, S-9, AROCLOR 1254, Method: STANDARD PLATE) is “inactive; negative”; the mutagenic call under setting [2] is “inactive; negative”; the mutagenic call (Test System: AMES SALMONELLA TYPHIMURIUM, Strain/Indicator: TA100, Metabolic Activation: NONE, Method: STANDARD PLATE) is “inactive; negative”; the mutagenic call (Test System: AMES SALMONELLA TYPHIMURIUM, Strain/Indicator: TA100, Metabolic Activation: RAT, LIVER, S-9, AROCLOR 1254 (10%), Method: PREINCUBATION) was “inactive; negative”; the mutagenic call (Test System: AMES SALMONELLA TYPHIMURIUM, Strain/Indicator: TA100, Metabolic Activation: RAT, LIVER, S-9, AROCLOR 1254, Method: STANDARD PLATE) is “inactive; negative”. In addition, the mutagenic call by setting is: (Test System: AMES SALMONELLA TYPHIMURIUM, Strain/Indicator: TA1535, Metabolic Activation: HAMSTER, LIVER, S-9, AROCLOR 1254 (10%), Method: PREINCUBATION) “inactive; negative”; (Test System: AMES SALMONELLA TYPHIMURIUM, Strain/Indicator: TA1535, Metabolic Activation: HAMSTER, LIVER, S-9, AROCLOR 1254, Method: STANDARD PLATE) “inactive; negative”; under setting [3], “inactive; negative”; (Test System: AMES SALMONELLA TYPHIMURIUM, Strain/Indicator: TA1535, Metabolic Activation: NONE, Method: STANDARD PLATE) “inactive; negative”; (Test System: AMES SALMONELLA TYPHIMURIUM, Strain/Indicator: TA1535, Metabolic Activation: RAT, LIVER, S-9, AROCLOR 1254 (10%), Method: PREINCUBATION) “inactive; negative”; (Test System: AMES SALMONELLA TYPHIMURIUM, Strain/Indicator: TA1535, Metabolic Activation: RAT, LIVER, S-9, AROCLOR 1254, Method: STANDARD PLATE) “inactive; negative”. Also, the mutagenic call by setting is: (Test System: AMES SALMONELLA TYPHIMURIUM, Strain/Indicator: TA1537, Metabolic Activation: HAMSTER, LIVER, S-9, AROCLOR 1254 (10%), Method: PREINCUBATION) “inactive; negative”; (Test System: AMES SALMONELLA TYPHIMURIUM, Strain/Indicator: TA1537, Metabolic Activation: HAMSTER, LIVER, S-9, AROCLOR 1254, Method: STANDARD PLATE) “inactive; negative”; under setting [4], “inactive; negative”; (Test System: AMES SALMONELLA TYPHIMURIUM, Strain/Indicator: TA1537, Metabolic Activation: NONE, Method: STANDARD PLATE) “inactive; negative”; (Test System: AMES SALMONELLA TYPHIMURIUM, Strain/Indicator: TA1537, Metabolic Activation: RAT, LIVER, S-9, AROCLOR 1254 (10%), Method: PREINCUBATION) “inactive; negative”; (Test System: AMES SALMONELLA TYPHIMURIUM, Strain/Indicator: TA1537, Metabolic Activation: RAT, LIVER, S-9, AROCLOR 1254, Method: STANDARD PLATE) “inactive; negative”. Also, the mutagenic call (Test System: AMES SALMONELLA TYPHIMURIUM, Strain/Indicator: TA1538, Metabolic Activation: HAMSTER, LIVER, S-9, AROCLOR 1254, Method: STANDARD PLATE) was “inactive; negative”; the mutagenic call (Test System: AMES SALMONELLA TYPHIMURIUM, Strain/Indicator: TA1538, Metabolic Activation: NONE, Method: STANDARD PLATE) was “inactive; negative”; the mutagenic call (Test System: AMES SALMONELLA TYPHIMURIUM, Strain/Indicator: TA1538, Metabolic Activation: RAT, LIVER, S-9, AROCLOR 1254, Method: STANDARD PLATE) is “inactive; negative”; the mutagenic call (Test System: MOUSE LYMPHOMA, Strain/Indicator: L5178Y (TK+/TK-), Metabolic Activation: NONE, Method: SUSPENSION/PLATE) was “inactive; negative. reevaluation of results: negative”; the mutagenic call (Test System: MOUSE LYMPHOMA, Strain/Indicator: L5178Y (TK+/TK-), Metabolic Activation: RAT, LIVER, S-9, AROCLOR 1254, Method: SUSPENSION/PLATE) was “inactive; negative. reevaluation of results: negative”.
With `CC(C)NCC(O)c1ccc(O)c(O)c1` (centres undefined), the mutagenic call (End Point: IN VITRO CHROMOSOMAL ABERRATIONS, Test System: CHINESE HAMSTER OVARY CELLS, Metabolic Activation: NONE) is “inactive; negative”; the mutagenic call (End Point: IN VITRO CHROMOSOMAL ABERRATIONS, Test System: CHINESE HAMSTER OVARY CELLS, Metabolic Activation: RAT, LIVER, S-9, AROCLOR 1254) is “active; positive”; the mutagenic call (Test System: AMES SALMONELLA TYPHIMURIUM, Strain/Indicator: TA98, Metabolic Activation: HAMSTER, LIVER, S-9, AROCLOR 1254, Method: PREINCUBATION) is “inactive; negative”; the mutagenic call under setting [1] is “inactive; negative”; the mutagenic call (Test System: AMES SALMONELLA TYPHIMURIUM, Strain/Indicator: TA98, Metabolic Activation: RAT, LIVER, S-9, AROCLOR 1254, Method: PREINCUBATION) was “inactive; negative”; the mutagenic call (Test System: AMES SALMONELLA TYPHIMURIUM, Strain/Indicator: TA100, Metabolic Activation: HAMSTER, LIVER, S-9, AROCLOR 1254, Method: PREINCUBATION) was “inactive; negative”. Further, the mutagenic call is, setting by setting: under setting [2], “inactive; negative”; (Test System: AMES SALMONELLA TYPHIMURIUM, Strain/Indicator: TA100, Metabolic Activation: RAT, LIVER, S-9, AROCLOR 1254, Method: PREINCUBATION) “inactive; negative”; (Test System: AMES SALMONELLA TYPHIMURIUM, Strain/Indicator: TA1535, Metabolic Activation: HAMSTER, LIVER, S-9, AROCLOR 1254, Method: PREINCUBATION) “inactive; negative”; under setting [3], “inactive; negative”; (Test System: AMES SALMONELLA TYPHIMURIUM, Strain/Indicator: TA1535, Metabolic Activation: RAT, LIVER, S-9, AROCLOR 1254, Method: PREINCUBATION) “inactive; negative”; (Test System: AMES SALMONELLA TYPHIMURIUM, Strain/Indicator: TA1537, Metabolic Activation: HAMSTER, LIVER, S-9, AROCLOR 1254, Method: PREINCUBATION) “inactive; negative”. Moreover, the mutagenic call under setting [4] was “inactive; negative” and the mutagenic call (Test System: AMES SALMONELLA TYPHIMURIUM, Strain/Indicator: TA1537, Metabolic Activation: RAT, LIVER, S-9, AROCLOR 1254, Method: PREINCUBATION) was “inactive; negative”.

The values are drawn from PubChem BioAssay AID1259407 (Chemical Carcinogenesis Research Information System (CCRIS), 2018).
